# Results published in patent US20080295189A1, “Construction of Arterial Occlusive Disease Animal Model” (JAPAN HEALTH SCIENCES FOUNDATION, priority 2004, published 2008).
# System: blood of a crab-eating macaque
# Test: Degree of coagulation of blood with coagulating agents (autologous blood clot formation)
# Conditions: blood in catheter, incubated 24 hours at 37° C., versus blood coagulated alone
# Description: As coagulating agents, ADP and thrombin were used to examine the degree of coagulation. ADP was used at concentrations of 30 and 100 μg/ml (without thrombin at both concentrations), and thrombin at concentrations of 0.5 and 10% (w/v) (without ADP at both concentrations). Blood was drawn from the ventral tail artery of a crab-eating macaque, and was placed into a catheter with or without adding a coagulating agent, incubated for 24 hours at 37° C., and then pushed out to observe the condition of coagulation. As control was used a sample to which neither of the coagulating agents was added (blood which was coagulated alone). The results were shown in the left panel of FIG. 3. […] Next, a blood clot which was obtained by incubating blood for 24 hours at 37° C. with 100 μg of ADP and 10% (w/v) of thrombin was immersed in a povidone-iodine solution, followed by X-ray photography. As shown in the right panel of FIG. 3, there was observed a shade corresponding to the blood clot, allowing one to identify the location of a blood clot be means of an X-ray photographic apparatus.
Molecule,condition of coagulation (ADP 30 and 100 μg/ml without thrombin),condition of coagulation (thrombin 0.5 and 10% (w/v) without ADP)
"Nc1ncnc2c1ncn2[C@@H]1O[C@H](COP(=O)(O)OP(=O)(O)O)[C@@H](O)[C@H]1O [ADP, adenosine diphosphate]","the higher concentration of ADP, the better coagulation took place",
Thrombin,,comparable coagulation at both 0.5 and 10% (w/v)
